Source: patent US7098340B2, “Benzyl sulfonamide derivatives” (Warner Lambert Company LLC, priority 2003, dated 2006)

molecular target: T1, androgen receptor (Homo sapiens, UniProt P10275); experiment: AR Antagonist Cell Assay (MMTV-luciferase reporter, DHT-stimulated); type: cell-based; settings: MDA-MB453-MMTV clone 54-19 cells; antagonism of 100 pM DHT, 17 hr, luciferase readout
T1 sequence (P10275 1-920 Q868H): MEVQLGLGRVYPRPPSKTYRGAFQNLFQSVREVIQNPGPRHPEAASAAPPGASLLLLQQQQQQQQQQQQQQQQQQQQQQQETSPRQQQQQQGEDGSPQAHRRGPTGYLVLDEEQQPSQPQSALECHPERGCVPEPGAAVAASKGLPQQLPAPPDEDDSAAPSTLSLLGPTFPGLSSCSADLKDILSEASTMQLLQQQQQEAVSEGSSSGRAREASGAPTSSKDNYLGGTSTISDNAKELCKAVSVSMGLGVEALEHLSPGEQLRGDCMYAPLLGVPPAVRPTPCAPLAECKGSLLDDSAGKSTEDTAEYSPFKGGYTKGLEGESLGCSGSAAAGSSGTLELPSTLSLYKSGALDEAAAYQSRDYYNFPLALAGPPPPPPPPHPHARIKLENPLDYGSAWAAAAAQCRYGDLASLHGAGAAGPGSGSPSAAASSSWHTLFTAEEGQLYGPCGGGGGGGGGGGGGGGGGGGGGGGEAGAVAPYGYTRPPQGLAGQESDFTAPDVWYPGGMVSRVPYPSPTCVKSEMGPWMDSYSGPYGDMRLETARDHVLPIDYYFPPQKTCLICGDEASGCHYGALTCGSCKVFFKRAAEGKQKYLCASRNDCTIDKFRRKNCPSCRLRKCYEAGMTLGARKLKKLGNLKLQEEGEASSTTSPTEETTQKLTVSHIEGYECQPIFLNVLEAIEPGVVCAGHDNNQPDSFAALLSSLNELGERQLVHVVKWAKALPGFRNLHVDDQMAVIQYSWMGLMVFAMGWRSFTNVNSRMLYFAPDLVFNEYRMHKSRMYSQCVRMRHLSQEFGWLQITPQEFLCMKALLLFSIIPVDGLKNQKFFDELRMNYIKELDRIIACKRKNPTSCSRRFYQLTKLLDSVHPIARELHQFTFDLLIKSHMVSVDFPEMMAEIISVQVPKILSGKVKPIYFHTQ
Procedure, shortened: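 MDA-MB453 cells stably carrying MMTV-ARE-firefly luciferase, in 1% charcoal-treated serum, preincubated 30 min with compound (10 uM or 1 uM) then stimulated with 100 pM DHT for 17 h at 37° C. Luminescence read; result as % inhibition of DHT fold induction.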

SMILES | IC50
CCCN(CC1CC1)S(=O)(=O)c1ccc(Cc2ccc3oc(=O)cc(C(F)(F)F)c3c2)cc1 [Example 104, N-Cyclopropylmethyl-4-(2-oxo-4-trifluoromethyl-2H-chromen-6-ylmethyl)-N-propylbenzenesulfonamide] | 1.79 µM
CCCCCN(CCO)S(=O)(=O)c1ccc(Cc2ccc3oc(=O)cc(C(F)(F)F)c3c2)cc1 [Example 105] | 3.52 µM
CN(C1CCCCC1)S(=O)(=O)c1ccc(Cc2ccc3oc(=O)cc(C(F)(F)F)c3c2)cc1 [Example 106, N-Cyclohexyl-N-methyl-4-(2-oxo-4-trifluoromethyl-2H-chromen-6-ylmethyl)-benzenesulfonamide] | > 10 µM
CCCCN(C)S(=O)(=O)c1ccc(Cc2ccc3oc(=O)cc(C(F)(F)F)c3c2)cc1 [Example 107, N-Butyl-N-methyl-4-(2-oxo-4-trifluoromethyl-2H-chromen-6-ylmethyl)benzenesulfonamide] | 3.45 µM
CN(CCC#N)S(=O)(=O)c1ccc(Cc2ccc3oc(=O)cc(C(F)(F)F)c3c2)cc1 [Example 108, N-(2-Cyanoethyl)-N-methyl-4-(2-oxo-4-trifluoromethyl-2H-chromen-6-ylmethyl)-benzenesulfonamide] | 4.72 µM
O=c1cc(C(F)(F)F)c2cc(Cc3ccc(S(=O)(=O)N(Cc4ccccc4)Cc4ccccc4)cc3)ccc2o1 [Example 109, N,N-Dibenzyl-4-(2-oxo-4-trifluoromethyl-2H-chromen-6-ylmethyl)benzenesulfonamide] | 8.26 µM
CCN(Cc1ccccc1)S(=O)(=O)c1ccc(Cc2ccc3oc(=O)cc(C(F)(F)F)c3c2)cc1 [Example 110, N-Benzyl-N-ethyl-4-(2-oxo-4-trifluoromethyl-2H-chromen-6-ylmethyl)benzenesulfonamide] | 5.94 µM
CN(CCc1ccccn1)S(=O)(=O)c1ccc(Cc2ccc3oc(=O)cc(C(F)(F)F)c3c2)cc1 [Example 111, N-Methyl-4-(2-oxo-4-trifluoromethyl-2H-chromen-6-ylmethyl)-N-(2-pyridin-2-ylethyl)benzenesulfonamide] | 4.78 µM
CN(CCc1ccccc1)S(=O)(=O)c1ccc(Cc2ccc3oc(=O)cc(C(F)(F)F)c3c2)cc1 [Example 112, N-Methyl-4-(2-oxo-4-trifluoromethyl-2H-chromen-6-ylmethyl)-N-phenethyl-benzenesulfonamide] | > 10 µM
O=c1cc(C(F)(F)F)c2cc(Cc3ccc(S(=O)(=O)Nc4ccccc4)cc3)ccc2o1 [Example 113, 4-(2-Oxo-4-trifluoromethyl-2H-chromen-6-ylmethyl)-N-phenylbenzenesulfonamide] | 0.72 µM
CN(c1ccccc1)S(=O)(=O)c1ccc(Cc2ccc3oc(=O)cc(C(F)(F)F)c3c2)cc1 [Example 114, N-Methyl-4-(2-oxo-4-trifluoromethyl-2H-chromen-6-ylmethyl)-N-phenylbenzenesulfonamide] | 5.94 µM
Cc1cccc(NS(=O)(=O)c2ccc(Cc3ccc4oc(=O)cc(C(F)(F)F)c4c3)cc2)c1 [Example 115, 4-(2-Oxo-4-trifluoromethyl-2H-chromen-6-ylmethyl)-N-m-tolylbenzenesulfonamide] | 2.05 µM
Cc1ccc(NS(=O)(=O)c2ccc(Cc3ccc4oc(=O)cc(C(F)(F)F)c4c3)cc2)cc1 [Example 116, 4-(2-Oxo-4-trifluoromethyl-2H-chromen-6-ylmethyl)-N-p-tolylbenzenesulfonamide] | 1.21 µM
O=c1cc(C(F)(F)F)c2cc(Cc3ccc(S(=O)(=O)Nc4ccc(F)cc4)cc3)ccc2o1 [Example 117, N-(4-Fluorophenyl)-4-(2-oxo-4-trifluoromethyl-2H-chromen-6-ylmethyl)benzenesulfonamide] | 3.46 µM
C#Cc1ccc(NS(=O)(=O)c2ccc(Cc3ccc4oc(=O)cc(C(F)(F)F)c4c3)cc2)cc1 [Example 118, N-(4-Ethynylphenyl)-4-(2-oxo-4-trifluoromethyl-2H-chromen-6-ylmethyl)-benzenesulfonamide] | 5.47 µM
CCc1cccc(NS(=O)(=O)c2ccc(Cc3ccc4oc(=O)cc(C(F)(F)F)c4c3)cc2)c1 [Example 119, N-(3-Ethylphenyl)-4-(2-oxo-4-trifluoromethyl-2H-chromen-6-ylmethyl)-benzenesulfonamide] | 3.42 µM

SMILES | IC50
CCc1ccc(NS(=O)(=O)c2ccc(Cc3ccc4oc(=O)cc(C(F)(F)F)c4c3)cc2)cc1 [Example 120, N-(4-Ethylphenyl)-4-(2-oxo-4-trifluoromethyl-2H-chromen-6-ylmethyl)-benzenesulfonamide] | 1.32 µM
O=c1cc(C(F)(F)F)c2cc(Cc3ccc(S(=O)(=O)Nc4ccccc4CO)cc3)ccc2o1 [Example 121, N-(2-Hydroxymethylphenyl)-4-(2-oxo-4-trifluoromethyl-2H-chromen-6-ylmethyl)-benzenesulfonamide] | 3.17 µM
O=c1cc(C(F)(F)F)c2cc(Cc3ccc(S(=O)(=O)Nc4cccc(CO)c4)cc3)ccc2o1 [Example 122, N-(3-Hydroxymethylphenyl)-4-(2-oxo-4-trifluoromethyl-2H-chromen-6-ylmethyl)-benzenesulfonamide] | 1.83 µM
COc1ccccc1NS(=O)(=O)c1ccc(Cc2ccc3oc(=O)cc(C(F)(F)F)c3c2)cc1 [Example 123, N-(2-Methoxyphenyl)-4-(2-oxo-4-trifluoromethyl-2H-chromen-6-ylmethyl)-benzenesulfonamide] | 4.08 µM
O=c1cc(C(F)(F)F)c2cc(Cc3ccc(S(=O)(=O)Nc4ccc(CO)cc4)cc3)ccc2o1 [Example 124, N-(4-Hydroxymethylphenyl)-4-(2-oxo-4-trifluoromethyl-2H-chromen-6-ylmethyl)-benzenesulfonamide] | 2.31 µM
O=c1cc(C(F)(F)F)c2cc(Cc3ccc(S(=O)(=O)Nc4ccc5ncccc5c4)cc3)ccc2o1 [Example 125, 4-(2-Oxo-4-trifluoromethyl-2H-chromen-6-ylmethyl)-N-quinolin-6-ylbenzenesulfonamide] | > 10 µM
N#CCc1ccc(NS(=O)(=O)c2ccc(Cc3ccc4oc(=O)cc(C(F)(F)F)c4c3)cc2)cc1 [Example 126, N-(4-Cyanomethylphenyl)-4-(2-oxo-4-trifluoromethyl-2H-chromen-6-ylmethyl)-benzenesulfonamide] | 1.89 µM
O=c1cc(C(F)(F)F)c2cc(Cc3ccc(S(=O)(=O)Nc4ccc5c(c4)CCC5)cc3)ccc2o1 [Example 127, N-Indan-5-yl-4-(2-oxo-4-trifluoromethyl-2H-chromen-6-ylmethyl)benzenesulfonamide] | 2.77 µM
O=c1cc(C(F)(F)F)c2cc(Cc3ccc(S(=O)(=O)Nc4cccc5c4CCC5)cc3)ccc2o1 [Example 128, N-Indan-4-yl-4-(2-oxo-4-trifluoromethyl-2H-chromen-6-ylmethyl)benzenesulfonamide] | 4.77 µM
CC(=O)c1cccc(NS(=O)(=O)c2ccc(Cc3ccc4oc(=O)cc(C(F)(F)F)c4c3)cc2)c1 [Example 129, N-(3-Acetylphenyl)-4-(2-oxo-4-trifluoromethyl-2H-chromen-6-ylmethyl)benzenesuifonamide] | 2.16 µM
CC(C)c1ccc(NS(=O)(=O)c2ccc(Cc3ccc4oc(=O)cc(C(F)(F)F)c4c3)cc2)cc1 [Example 130, N-(4-Isopropylphenyl)-4-(2-oxo-4-trifluoromethyl-2H-chromen-6-ylmethyl)-benzenesulfonamide] | 3.91 µM
O=c1cc(C(F)(F)F)c2cc(Cc3ccc(S(=O)(=O)Nc4ccc5c(c4)OCO5)cc3)ccc2o1 [Example 131, N-Benzo[1,3]dioxol-5-yl-4-(2-oxo-4-trifluoromethyl-2H-chromen-6-ylmethyl)-benzenesulfonamide] | 2.4 µM
Cc1ccc(-c2ccccc2)cc1NS(=O)(=O)c1ccc(Cc2ccc3oc(=O)cc(C(F)(F)F)c3c2)cc1 [Example 132, N-(4-Methylbiphenyl-3-yl)-4-(2-oxo-4-trifluoromethyl-2H-chromen-6-ylmethyl)-benzenesulfonamide] | 8.13 µM
CC(O)c1cccc(NS(=O)(=O)c2ccc(Cc3ccc4oc(=O)cc(C(F)(F)F)c4c3)cc2)c1 (centres unmarked) [Example 133, N-[3-(1-Hydroxyethyl)phenyl]-4-(2-oxo-4-trifluoromethyl-2H-chromen-6-ylmethyl)-benzenesulfonamide] | 6.91 µM
CSc1cccc(NS(=O)(=O)c2ccc(Cc3ccc4oc(=O)cc(C(F)(F)F)c4c3)cc2)c1 [Example 134, N-(3-Methylsulfanylphenyl)-4-(2-oxo-4-trifluoromethyl-2H-chromen-6-ylmethyl)-benzenesulfonamide] | 1.24 µM
O=c1cc(C(F)(F)F)c2cc(Cc3ccc(S(=O)(=O)Nc4ccc(Cl)cc4)cc3)ccc2o1 [Example 135, N-(4-Chlorophenyl)-4-(2-oxo-4-trifluoromethyl-2H-chromen-6-ylmethyl)benzenesulfonamide] | 2.01 µM
